Measurements as given in the supplement of paper PMC10307832.

Assays:
Venetoclax + Dasatinib = compound: CC1(C)CCC(CN2CCN(c3ccc(C(=O)NS(=O)(=O)c4ccc(NCC5CCOCC5)c([N+](=O)[O-])c4)c(Oc4cnc5[nH]ccc5c4)c3)CC2)=C(c2ccc(Cl)cc2)C1 [Venetoclax] + Cc1nc(Nc2ncc(C(=O)Nc3c(C)cccc3Cl)s2)cc(N2CCN(CCO)CC2)n1 [Dasatinib] (partner 0.075 µM); test: relative viability (nuclei count vs DMSO), 5 days (fraction); higher = more cells survive
In short: (§1)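 A single step with final 0.05% Triton X-100, 1% formaldehyde and 1 ug/ml Hoechst fixed the cells and stained nuclei 5 days after treatment. Lung cancer cell lines in 1536-well plates had been treated by pin tool the day after seeding with one drug alone or a fixed anchor-drug dose plus five library-drug doses (not always all listed) in √10 steps, and nuclei were counted on 4× images. Relative viability is the ratio of nuclei in treated wells to nuclei in vehicle wells, taken as the median of duplicate plates.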

Venetoclax + Luminespib = compound: CC1(C)CCC(CN2CCN(c3ccc(C(=O)NS(=O)(=O)c4ccc(NCC5CCOCC5)c([N+](=O)[O-])c4)c(Oc4cnc5[nH]ccc5c4)c3)CC2)=C(c2ccc(Cl)cc2)C1 [Venetoclax] + CCNC(=O)c1noc(-c2cc(C(C)C)c(O)cc2O)c1-c1ccc(CN2CCOCC2)cc1 [Luminespib] (partner 0.01 µM); test: as above
In short: as §1

Cell Line | relative viability (Venetoclax + Dasatinib; first compound 0.01 µM) | relative viability (Venetoclax + Dasatinib; first compound 0.03162 µM) | relative viability (Venetoclax + Dasatinib; first compound 0.1 µM) | relative viability (Venetoclax + Dasatinib; first compound 0.3162 µM) | relative viability (Venetoclax + Dasatinib; first compound 1 µM) | relative viability (Venetoclax + Luminespib; first compound 0.01 µM) | relative viability (Venetoclax + Luminespib; first compound 0.03162 µM) | relative viability (Venetoclax + Luminespib; first compound 0.1 µM) | relative viability (Venetoclax + Luminespib; first compound 0.3162 µM) | relative viability (Venetoclax + Luminespib; first compound 1 µM)
ChaGo-K-1 | 0.722 | 0.601 | 0.59 | 0.598 | 0.547 | 0.459 | 0.709 | 0.637 | 0.628 | 0.59
NCI-H727 | 0.421 | 0.357 | 0.35 | 0.415 | 0.447 | 0.465 | 0.439 | 0.209 | 0.303 | 0.357
COR-L23 | 0.414 | 0.505 | 0.484 | 0.495 | 0.504 | 0.469 | 0.669 | 0.728 | 0.71 | 0.651
COR-L 105 | 0.42 | 0.364 | 0.296 | 0.462 | 0.377 | 1.03 | 0.61 | 0.522 | 0.712 | 0.625
LK-2 | 0.403 | 0.319 | 0.259 | 0.247 | 0.255 | 0.186 | 0.204 | 0.185 | 0.157 | 0.182
201T | 0.545 | 0.551 | 0.614 | 0.501 | 0.488 | 1.01 | 1.08 | 1.04 | 0.996 | 1.05
HCC-78 | 0.442 | 0.441 | 0.409 | 0.323 | 0.368 | – | – | – | – | –
NCI-H650 | 0.488 | 0.539 | 0.453 | 0.484 | 0.432 | 0.805 | 0.837 | 0.751 | 0.954 | 0.735
HARA | 0.422 | 0.258 | 0.228 | 0.249 | 0.216 | 0.814 | 0.657 | 0.751 | 0.913 | 0.823
NCI-H661 | 0.809 | 1.04 | 0.871 | 0.995 | 0.888 | 0.924 | 0.956 | 0.894 | 0.822 | 0.871
NCI-H2087 | 0.848 | 0.839 | 0.997 | 0.936 | 0.76 | 0.154 | 0.138 | 0.175 | 0.18 | 0.135
NCI-H2405 | 0.179 | 0.199 | 0.186 | 0.197 | 0.197 | 0.747 | 0.754 | 0.85 | 0.712 | 0.639
NCI-H1944 | 0.283 | 0.235 | 0.201 | 0.222 | 0.227 | 0.992 | 0.787 | 0.775 | 0.879 | 0.696
NCI-H1793 | 0.448 | 0.355 | 0.291 | 0.358 | 0.27 | 0.152 | 0.194 | 0.164 | 0.19 | 0.162
NCI-H647 | 0.16 | 0.218 | 0.162 | 0.238 | 0.228 | 0.167 | 0.206 | 0.124 | 0.123 | 0.151
NCI-H596 | 0.707 | 0.549 | 0.587 | 0.572 | 0.615 | 1.03 | 0.947 | 1.03 | 0.994 | 1.06
EKVX | 0.576 | 0.641 | 0.437 | 0.567 | 0.47 | 0.87 | 0.89 | 0.923 | 0.833 | 0.884

Cell Line | relative viability (Venetoclax + Dasatinib; first compound 0.01 µM) | relative viability (Venetoclax + Dasatinib; first compound 0.03162 µM) | relative viability (Venetoclax + Dasatinib; first compound 0.1 µM) | relative viability (Venetoclax + Dasatinib; first compound 0.3162 µM) | relative viability (Venetoclax + Dasatinib; first compound 1 µM) | relative viability (Venetoclax + Luminespib; first compound 0.01 µM) | relative viability (Venetoclax + Luminespib; first compound 0.03162 µM) | relative viability (Venetoclax + Luminespib; first compound 0.1 µM) | relative viability (Venetoclax + Luminespib; first compound 0.3162 µM) | relative viability (Venetoclax + Luminespib; first compound 1 µM)
NCI-H358 | 0.309 | 0.17 | 0.15 | 0.158 | 0.161 | 0.402 | 0.313 | 0.245 | 0.579 | 0.321
H3255 | 0.367 | 0.399 | 0.373 | 0.446 | 0.404 | 0.915 | 0.993 | 0.846 | 0.947 | 0.822
NCI-H1651 | 0.474 | 0.43 | 0.383 | 0.409 | 0.43 | 0.872 | 0.882 | 0.817 | 0.8 | 0.79
NCI-H1395 | 0.449 | 0.406 | 0.392 | 0.442 | 0.409 | 0.661 | 0.805 | 0.517 | 0.793 | 0.658
NCI-H23 | 0.664 | 0.781 | 0.636 | 0.706 | 0.628 | 0.222 | 0.226 | 0.215 | 0.228 | 0.22
NCI-H1355 | 0.697 | 0.731 | 0.623 | 0.723 | 0.602 | 0.748 | 0.759 | 0.667 | 0.782 | 0.778
NCI-H2085 | 0.273 | 0.238 | 0.282 | 0.243 | 0.22 | 0.339 | 0.427 | 0.437 | 0.37 | 0.438
SW 900 | 0.544 | 0.625 | 0.645 | 0.855 | 0.434 | 0.163 | 0.153 | 0.197 | 0.168 | 0.182
NCI-H322M | 0.291 | 0.239 | 0.237 | 0.246 | 0.24 | 1 | 0.842 | 0.814 | 0.944 | 0.941
NCI-H1915 | 0.303 | 0.301 | 0.311 | 0.297 | 0.32 | 0.745 | 0.808 | 0.708 | 0.699 | 0.695
HCC-827 | 0.336 | 0.368 | 0.34 | 0.33 | 0.334 | 0.657 | 0.641 | 0.237 | 0.509 | 0.694
LXF-289 | 0.137 | 0.262 | 0.242 | 0.253 | 0.166 | 0.787 | 0.7 | 0.61 | 0.663 | 0.472
LC-2-ad | 0.575 | 0.612 | 0.522 | 0.671 | 0.544 | 1.05 | 0.962 | 0.981 | 1.01 | 0.898
NCI-H441 | 0.685 | 0.667 | 0.482 | 0.546 | 0.596 | 0.337 | 0.372 | 0.434 | 0.299 | 0.427
HOP-62 | 0.557 | 0.582 | 0.616 | 0.709 | 0.625 | 0.945 | 0.892 | 0.926 | 0.8 | 0.842
NCI-H2009 | 0.37 | 0.315 | 0.283 | 0.302 | 0.266 | 0.987 | 1.08 | 0.937 | 1 | 0.92
